Laboratory results taken from ChEMBL document CHEMBL1138912, “Dipeptidyl nitriles as human dipeptidyl peptidase I inhibitors” (Bioorg Med Chem Lett, 2006).
Calls of active or inactive are those of the source. No cut-off for these calls is given here.

Tests used:
Dipeptidyl peptidase 1 [1] = target: T1, Dipeptidyl peptidase 1 (Homo sapiens, UniProt P53634); test: Residual activity at human DPP1 at 10 uM
Cathepsin B = Cathepsin B (Homo sapiens, UniProt P07858); test: Inhibition of Cathepsin B
Pro-cathepsin H = target: T2, Pro-cathepsin H (Homo sapiens, UniProt P09668); test: Inhibition of Cathepsin H
T2 sequence (P09668 whole entry): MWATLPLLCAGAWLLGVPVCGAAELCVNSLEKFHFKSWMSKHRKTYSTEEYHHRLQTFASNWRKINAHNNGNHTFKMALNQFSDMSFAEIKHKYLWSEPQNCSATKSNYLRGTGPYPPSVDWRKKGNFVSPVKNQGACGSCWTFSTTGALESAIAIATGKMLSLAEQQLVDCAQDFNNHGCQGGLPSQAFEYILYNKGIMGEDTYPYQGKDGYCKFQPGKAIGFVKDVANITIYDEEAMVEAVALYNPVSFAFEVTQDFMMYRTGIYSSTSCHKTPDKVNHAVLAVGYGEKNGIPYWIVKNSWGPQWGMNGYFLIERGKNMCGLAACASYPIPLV

Procathepsin L = Procathepsin L (Homo sapiens, UniProt P07711); test: Inhibition of Cathepsin L
Cytochrome P450 2C9 = Cytochrome P450 2C9 (Homo sapiens, UniProt P11712); test: Inhibition of CYP2C9; assay type: ADME
Cytochrome P450 2C19 = Cytochrome P450 2C19 (Homo sapiens, UniProt P33261); test: Inhibition of CYP2C19; assay type: ADME
Dipeptidyl peptidase 1 [2] = target: T1, Dipeptidyl peptidase 1; test: Inhibition of human DPP1
[3] = Metabolic stability in rat liver microsomes after 15 min; assay type: ADME, Microsome; conditions: read-out: Stability
Dipeptidyl peptidase 1 [4] = target: T1, Dipeptidyl peptidase 1; test: Inhibition of human DPP1 at 20 uM

T1 sequence (P53634 25-134 limits assumed): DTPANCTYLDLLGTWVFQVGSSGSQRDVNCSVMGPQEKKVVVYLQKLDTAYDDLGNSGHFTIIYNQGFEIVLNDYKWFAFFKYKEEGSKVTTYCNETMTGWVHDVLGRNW
T1 sequence (P53634 231-394 limits assumed): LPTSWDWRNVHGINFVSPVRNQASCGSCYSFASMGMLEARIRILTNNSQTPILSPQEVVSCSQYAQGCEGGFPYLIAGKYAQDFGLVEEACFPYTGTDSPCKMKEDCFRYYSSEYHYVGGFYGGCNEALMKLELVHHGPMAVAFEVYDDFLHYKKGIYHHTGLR
T1 sequence (P53634 395-463 limits assumed): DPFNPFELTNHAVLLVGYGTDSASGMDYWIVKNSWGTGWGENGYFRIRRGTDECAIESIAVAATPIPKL
Sequence of Cytochrome P450 2C19 (P33261 whole entry): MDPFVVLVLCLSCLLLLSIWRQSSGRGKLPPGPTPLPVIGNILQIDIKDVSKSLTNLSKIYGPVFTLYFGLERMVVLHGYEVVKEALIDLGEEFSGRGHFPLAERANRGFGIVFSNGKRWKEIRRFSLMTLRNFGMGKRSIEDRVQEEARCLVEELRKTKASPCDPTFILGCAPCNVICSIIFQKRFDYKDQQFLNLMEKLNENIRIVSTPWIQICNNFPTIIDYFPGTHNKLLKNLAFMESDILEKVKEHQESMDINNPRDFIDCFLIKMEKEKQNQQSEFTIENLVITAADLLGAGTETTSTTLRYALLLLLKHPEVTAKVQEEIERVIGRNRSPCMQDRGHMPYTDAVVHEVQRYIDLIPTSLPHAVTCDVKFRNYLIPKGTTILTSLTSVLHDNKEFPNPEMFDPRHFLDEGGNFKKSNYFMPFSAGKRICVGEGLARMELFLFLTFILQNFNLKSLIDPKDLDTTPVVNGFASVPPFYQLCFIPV
Sequence of Cytochrome P450 2C9 (P11712 whole entry): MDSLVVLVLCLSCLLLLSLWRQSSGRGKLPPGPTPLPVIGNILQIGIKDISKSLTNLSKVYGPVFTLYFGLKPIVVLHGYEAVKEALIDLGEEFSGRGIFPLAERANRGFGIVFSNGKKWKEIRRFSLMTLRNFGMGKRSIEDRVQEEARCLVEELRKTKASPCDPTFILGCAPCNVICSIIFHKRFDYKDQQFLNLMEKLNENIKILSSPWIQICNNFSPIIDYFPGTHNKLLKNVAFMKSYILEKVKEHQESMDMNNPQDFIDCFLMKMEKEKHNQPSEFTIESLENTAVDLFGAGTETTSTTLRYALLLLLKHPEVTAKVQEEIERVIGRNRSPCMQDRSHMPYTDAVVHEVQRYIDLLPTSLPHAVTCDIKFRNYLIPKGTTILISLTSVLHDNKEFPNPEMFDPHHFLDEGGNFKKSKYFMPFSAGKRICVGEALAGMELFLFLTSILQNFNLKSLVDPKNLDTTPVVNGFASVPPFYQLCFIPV
Sequence of Procathepsin L (P07711 whole entry): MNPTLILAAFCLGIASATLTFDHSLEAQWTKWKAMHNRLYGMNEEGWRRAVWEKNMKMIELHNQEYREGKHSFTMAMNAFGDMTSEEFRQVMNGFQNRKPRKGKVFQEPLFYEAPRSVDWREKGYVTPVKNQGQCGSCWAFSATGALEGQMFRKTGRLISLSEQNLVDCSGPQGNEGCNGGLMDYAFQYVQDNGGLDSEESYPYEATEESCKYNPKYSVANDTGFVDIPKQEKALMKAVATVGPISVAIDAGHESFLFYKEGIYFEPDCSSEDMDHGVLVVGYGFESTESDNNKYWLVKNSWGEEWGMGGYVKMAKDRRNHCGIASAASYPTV

Row | Structure (SMILES) | IC50 (Dipeptidyl peptidase 1 [2]) [µM] | remaining at 0.25 h [3] [%] | also measured
1 | CC[C@H](N)C(=O)N(C)[C@H](C#N)Cc1ccccc1 |  |  | Activity (Dipeptidyl peptidase 1 [1]): 94%
2 | CC[C@H](N)C(=O)N[C@H](C#N)Cc1ccc(-c2ccccc2)cc1 |  |  | IC50 (Cathepsin B): > 10 µM; IC50 (Pro-cathepsin H): > 10 µM; IC50 (Procathepsin L): > 10 µM; IC50 (Cytochrome P450 2C9): > 20 µM; IC50 (Cytochrome P450 2C19): > 20 µM
3 | N#CC(Cc1ccccc1)NC(=O)[C@@H](N)Cc1ccccc1 (stereo in doubt) | 0.294 |  | 
4 | CC[C@H](N)C(=O)N[C@H](C#N)Cc1ccccc1 | 0.172 | 80 | 
5 | N#CC(Cc1ccccc1)NC(=O)[C@@H](N)Cc1ccccc1 (single isomer, unassigned; isomer B) | 6.3 |  | 
6 | N#C[C@H](Cc1ccccc1)NC(=O)CN | 4.79 |  | 
7 | N#CC(Cc1ccccc1)NC(=O)[C@@H](N)Cc1ccccc1 (stereo in doubt; 8) | 0.418 | 45 | 
8 | N#C[C@H](Cc1ccccc1)N1CC[C@H](N)C1=O |  |  | inhibition (Dipeptidyl peptidase 1 [4]): inactive
9 | CC[C@H](N)C(=O)N[C@H](C#N)CCc1ccccc1 | 0.822 | 74 | 
10 | CC[C@H](N)C(=O)N[C@H](C#N)Cc1ccc(Cl)cc1 | 0.096 | 70 | 
11 | CC[C@H](N)C(=O)N[C@H](C#N)C/C=C/c1ccccc1 | 0.137 |  | 
12 | N#C[C@H](Cc1ccccc1)NC(=O)[C@@H]1CCCN1 | 9.64 | 39 | 
